The conditions of data set [1]: humans; cited from earlier work.
Data set [2] is described as follows: clinical analgesic/anti-inflammatory efficacy and side effects in man. In kind it is in vivo. The method, then:
The analgesic dose for indoprofen in man is low in comparison to the anti-inflammatory dose, i.e., in the order of 100 to 600 mg. per day.
However, the dose necessary for indoprofen to exert an anti-inflammatory activity is higher than the analgesic dose, i.e., in the order of 800 to 1200 mg. per day. […] At this dose gastrointestinal ulceration and other side effects are […].

For data set [3] the following is noted: acidic pH of the stomach, unionized; cited from earlier work.
The conditions of data set [4]: human, in vivo.
A short description of data set [5]: plasma levels of indoprofen in mice after oral gavage (HPLC-UV). The data set is classed as in vivo. As to the method:
Plasma levels of indoprofen are determined in adult mice (22-25 g.) following oral gavage of either pure drug or microencapsulated drug. Drugs are administered at 1% of the body weight. Each treatment group in a single experiment contains four animals and the data is pooled for evaluation. Animals are sacrificed by decapitation. Blood from each treatment group is collected and pooled in heparinized tubes. Plasma is collected and frozen for assay of indoprofen concentration. Plasma indoprofen concentration is determined by high pressure liquid chromatography fitted with a UV detector; concentration is determined at max. 284 nm.
Plasma Level (μg/ml) of Indoprofen in Mice,
Administered Orally as a Suspension*
*Aqueous suspension containing 0.5% methylcellulose and 0.06% surface
^a The apparent rate of elimination, Ke is calculated using a on
compartment open model system as described by J. G. Wagner
Biopharmaceutics and Relevant Pharmacokinetics, page 180, Hamilton Press

The conditions of data set [6]: in vivo; cited from earlier work.

The values below come from patent publication US4316884A, “Sustained release pharmaceutical formulation” (Adria Laboratories, Inc., priority 1980, dated 1982).

Each structure is given as a SMILES string. Entries after “also recorded” stand apart in the source; their conditions may differ.

In the case of `CC(C(=O)O)c1ccc(N2Cc3ccccc3C2=O)cc1` (stereo not drawn) [indoprofen, alpha-[4-(1-oxo-2-isoindolinyl)-phenyl]propionic acid], the “plasma half-life (t 1/2)” value in data set [1] is 2.1 to 5.4 h. In data set [2] (clinical studies, above 800 mg., especially 1200 mg., per day), the “safety in prolonged therapy” value is listed as “has not been shown to be safe for prolonged therapy”. In addition, the safety classification result in data set [2] (clinical studies, up to 800 mg. per day) was “safe dose”. In data set [2] (man, 800 mg. per day), the effectiveness in osteoarthritis result is reported as “effective in the treatment of osteoarthritis”; the “gastrointestinal ulceration and other side effects” value is “minimal”. Moreover, in data set [2] (man, 1200 mg. per day), the “effectiveness in rheumatoid arthritis” value is “effective in the treatment of rheumatoid arthritis”; the “gastrointestinal ulceration and other side effects” value was “the incidence of gastrointestinal ulceration and other side effects are recognized”. Besides, in data set [2] (man, 100 to 600 mg. per day), the analgesic effect entry is on record as “maximum analgesic effect” and the side effects result is reported as “minimal or negligible side effects”. In data set [3], the solubility entry was “poorly soluble”. Besides, the “plasma peak height and bioavailability (total area under the plasma curve) as dose is increased” value in data set [4] is “increases in a linear fashion”. Moreover, in data set [5] (mouse, plasma, oral suspension), the half-life (commonly how long it takes for the measured level to halve) is 5.4 h. In addition, in data set [5] (mouse, plasma, oral suspension, 2 hours, mean and standard error, read-out: Plasma Level of Indoprofen), the concentration at 2 h was 2490 ± 450 ng/mL. Besides, in data set [5] (mouse, plasma, oral suspension, 4 hours, mean and standard error, read-out: Plasma Level of Indoprofen), the concentration at 4 h turned out to be 1620 ± 150 ng/mL. For the same molecule, in data set [5] (mouse, plasma, oral suspension, 8 hours, mean and standard error, read-out: Plasma Level of Indoprofen), the concentration at 8 h came out at 890 ± 240 ng/mL. Also, the concentration at 16 h in data set [5] (mouse, plasma, oral suspension, 16 hours, mean and standard error, read-out: Plasma Level of Indoprofen) stood at 490 ± 170 ng/mL. In data set [5] (mouse, plasma, oral suspension, 32 hours, mean and standard error, read-out: Plasma Level of Indoprofen), the concentration at 32 h was found to be 430 ng/mL. Further, the k el in data set [5] (mouse, plasma, oral suspension, one compartment open model, read-out: Ke, apparent rate of elimination (converted)) was 3.54e-05 s⁻¹. Besides, in data set [5] (mouse, plasma, oral, 1% of the body weight, read-out: area under the plasma curve), the AUC is 24500 ng·h/mL. The Cmax in data set [5] (mouse, plasma, oral, 1% of the body weight, read-out: plasma peak height) was 2500 ng/mL. For the same molecule, the “bioavailability, pure drug versus microencapsulated form” value in data set [5] (oral) was “bioequivalent; also recorded: equivalent bioavailability”. Also, in data set [5] (oral, listed as pure drug), the “plasma peak height, pure drug relative to microencapsulated drug” value is given as “two times that of microencapsulated form; also recorded: two times that of the microencapsulated drug”. In addition, the “anti-inflammatory and analgesic properties” value in data set [6] is “excellent anti-inflammatory and analgesic properties”.
